Key:
HAL-01 = assay: MTS cell proliferation assay; assay type: cell-based; details: Homo sapiens, growth inhibition after 72 h
Method: (§1) The myeloid leukemia cell lines MV-4-11, MOLT-4, MOLM-16, HL-60, and the human B lymphocyte cell line […] were purchased from the American Type Culture Collection (ATCC, Manassas, VA, United States). The myeloid leukemia cell line HAL-01 was obtained from the Deutsche Sammlung von Mikroorganismen und Zellkulturen GmbH (DSMZ, Braunschweig, Germany). All cells were cultured in IMDM or RPMI -1640 medium supplemented with 10% FBS, 100 U/mL penicillin, and 100 μg/mL streptomycin. The cells were maintained in a humidified incubator with an atmosphere of 5% CO2 at 37°C.
(§2) The in vitro anti-proliferative activity of the compounds was determined using the CellTiter 96® AQueous NonRadioactive Cell Proliferation Assay Kit (Promega, Madison, United States) as previously described ([Ji et al., 2017]). In brief, 5–10 × 10^3 cells and 180 μL of medium were first seeded into each well of a 96-well plate. Subsequently, the cells were exposed to either 0.2% Dimethyl sulfoxide (DMSO, Aladdin Reagent, Shanghai, China) or a serial dilution of the compounds, prepared from a 10 mM stock solution in DMSO, with the final concentration of DMSO being 0.2% for 72 h. 20 μL of MTS reagent was added to each well, and the culture was incubated in the dark at 37°C for 4 h. Finally, the optical density (OD) was then recorded at 490 nm and 690 nm using a microplate reader from Molecular Devices. The proliferation inhibition rate was calculated according to the following formula: inhibition ratio = (OD of DMSO treated wells - OD of compound treated wells)/(OD of DMSO treated wells - OD of blank wells) × 100%. The IC50 values of the compounds inhibiting cell proliferation were calculated using GraphPad Prism 10 (GraphPad Software Inc., San Diego, CA).
(§3) ^aIC50 (μM) is the concentration of compound needed to reduce cell growth by 50% after 72 h treatment with LTM-1.

HL-60 = assay: MTS cell proliferation assay; assay type: cell-based; details: Homo sapiens, growth inhibition after 72 h
Method: as §1, §2, §3

MOLM-16 = assay: MTS cell proliferation assay; assay type: cell-based; details: MOLM16; growth inhibition after 72 h
Method: as §1, §2, §3

MOLT-4 = assay: MTS cell proliferation assay; assay type: cell-based; details: Homo sapiens, growth inhibition after 72 h
Method: as §1, §2, §3

MV-4-11 xenograft = MV-4-11 xenograft model, anti-tumor activity; assay type: in vivo, BALB/c nude mice; details: 10 mg/kg intraperitoneal daily, 15 days, versus vehicle group
From the text: Given the potent inhibitory effect of LTM-1 on MV-4-11 cell proliferation in vitro, a previously reported xenograft animal model was established to measure the anti-tumor growth and development effects of LTM-1 ([Zhou et al., 2022]). The animal experimental design of this study was reviewed and confirmed by the Ethics Committee of China Pharmaceutical University. The experimental procedures complied with the ARRIVE guidelines (https://arriveguidelines.org/). Female BALB/c nude mice aged 4–6 weeks were purchased from Changzhou Cave Animal Co., Ltd. (Changzhou, China). Mice were housed in a specific pathogen-free (SPF) environment, where the temperature was precisely regulated to 25°C ± 2°C, the relative humidity was kept at 50% ± 5%, and a strict 12-h light-dark cycle was maintained. A 200 μL suspension of MV-4-11 cells (1 × 10^6 cells) was injected subcutaneously into the mice. […] The mice were administered drugs via intraperitoneal injection daily, with a total treatment period of 15 days. Mouse weight and tumor volume were measured every 3 days. The tumor volume was calculated using the formula (c × c × d)/2 (where c represents the smallest diameter, and d represents the largest diameter). […] In addition, the liver and kidney index levels were measured using an automatic biochemical analyzer to evaluate the toxic effects of LTM-1 on mice.

[1] = test system: MOLT-4, MOLM-16, HAL-01, and HL-60; assay: MTS cell proliferation assay, other AML cell lines together; assay type: cell-based; details: range over MOLT-4, MOLM-16, HAL-01, HL-60; read-out: IC50 across other AML cell lines
Method: as §1
The in vitro anti-proliferative activity of the compounds was determined using the CellTiter 96® AQueous NonRadioactive Cell Proliferation Assay Kit (Promega, Madison, United States) as previously described ([Ji et al., 2017]). In brief, 5–10 × 10^3 cells and 180 μL of medium were first seeded into each well of a 96-well plate. […] Finally, the optical density (OD) was then recorded at 490 nm and 690 nm using a microplate reader from Molecular Devices. […] The IC50 values of the compounds inhibiting cell proliferation were calculated using GraphPad Prism 10 (GraphPad Software Inc., San Diego, CA).

IC50 (HL-60): 0.39 ± 0.03 µM | IC50 (MOLM-16): 0.27 ± 0.02 µM | IC50 (MOLT-4): 0.19 ± 0.01 µM | IC50 [1]: 190 to 390 nM
SMILES: O=S(=O)(c1ccc(C(O)CO)c(C(F)(F)F)c1)N1CCc2cc(C3CC3NCC3CCNCC3)ccc21 (stereo not drawn) [LTM-1]
IC50 (HAL-01): 0.25 ± 0.01 µM | tumor growth (tumor volume) (MV-4-11 xenograft): significantly reduced

Source: paper PMC11903733 (Frontiers in Pharmacology, 2025)
